The structures appear in SMILES notation.

For data set [1], the target named is T1, human recombinant PDE5 (Homo sapiens, UniProt O76074).
T1 construct: host or cells: Saccharomyces cerevisiae strain BJ2-54 (ATCC 74465), described as an exemplary method
Description: Inhibitory effect on cGMP-PDE (PDE5 IC50, one-step assay). Format: biochemical. As to conditions: in vitro, 0.15 μM 8-[H3]-cGMP, 30 minutes incubation. The protocol:
The compounds of structural formula (I) were tested for an ability to inhibit PDE5. The ability of a compound to inhibit PDE5 activity is related to the IC50 value for the compound, i.e., the concentration of inhibitor required for 50% inhibition of enzyme activity. The IC50 value for compounds of structural formula (I) were determined using recombinant human PDE5.
cGMP-PDE activity of compounds of the present invention was measured using a one-step assay adapted from Wells et al., Biochim. Biophys. Acta, 384, 430 (1975). The reaction medium contained 50 mM Tris-HCl, pH 7.5, 5 mM magnesium acetate, 250 μg/ml 5′-Nucleotidase, 1 mM EGTA, and 0.15 μM 8-[H^3]-cGMP. Unless otherwise indicated, the enzyme used was a human recombinant PDE5 (ICOS Corp., Bothell, Wash.).
Compounds of the invention were dissolved in DMSO finally present at 2% in the assay.

As usually defined, the IC50 is the midpoint of a concentration-inhibition curve. `O=C1CC(=O)N2C1Cc1c([nH]c3ccccc13)C2c1ccc2c(c1)OCO2` (centres unmarked) [Example 9, 5-Benzo[1,3]dioxol-5-yl-5,6,11,11a-tetrahydroindolizino[6,7-b]indole-1,3-dione]: the IC50 in data set [1] came out at 200 nM.
As usually defined, the melting point is the temperature of the solid-liquid transition. Consider `O=C1OC(=O)N2[C@H](c3ccc4c(c3)OCO4)c3[nH]c4ccccc4c3C[C@H]12` [Example 1, (3aR,10R)-(+)-10-Benzo[1,3]dioxol-5-yl-3a,4,9,10-tetrahydro-2-oxa-9,10a-diaza-cyclopenta[β]fluorene-1,3-dione], for which the melting point lay in the range of 197 to 202 °C. In data set [1], the concentration for half-maximal inhibition (IC50) amounted to 205 nM.
In turn, `CN1C(=O)[C@@H]2Cc3c([nH]c4ccccc34)[C@@H](c3ccc4c(c3)OCO4)N2C1=S` [Example 6, (3aS,10R)-10-Benzo(1,3)dioxol-5-yl-2-methyl-1-thioxo-1,2,3a,4,9,10-hexahydro-2,9,10a-triazacyclopenta[b]fluoren-3-one] returned a melting point of 234 to 236 °C. Besides, in data set [1], the concentration for half-maximal inhibition (IC50) came to 12 nM.
For `CN1C(=O)N2[C@H](c3ccc4c(c3)OCO4)c3[nH]c4ccccc4c3C[C@H]2C1=S` [Example 5, (3aS,10R)-10-Benzo(1,3)dioxol-5-yl-2-methyl-3-thioxo-2,3,3a,4,9,10-hexahydro-2,9,10a-triazacyclopenta[b]fluoren-1-one] the same measures were 168 to 174 °C and 12 nM.
Consider `O=C1CCN2[C@H](c3ccc4c(c3)OCO4)c3[nH]c4ccccc4c3C[C@H]12` (racemic) [Example 14, (+−, trans)-5-Benzo[1,3]dioxol-5-yl,2,3,5,6,11,11a-hexahydro-indolizino[6,7-b]indol-1-one], for which the IC50 in data set [1] came out at 390 nM.
Still for that read-out and setting: to `COc1ccc([C@@H]2c3[nH]c4ccccc4c3C[C@H]3C(=O)N(Cc4ccccc4)CN23)cc1` (racemic) [Example 12, (+−, cis)-2-Benzyl-10-(4-methoxyphenyl)-1,2,3a,4,9,10-hexahydro-2,9,10a-triazacyclopenta[b]fluoren-3-one] belongs 60 nM; to `O=S1OCC2Cc3c([nH]c4ccccc34)C(c3ccc4c(c3)OCO4)N21` (centres unmarked) [Example 15, 10-Benzo[1,3]dioxol-5-yl-3a,4,9,10-tetrahydro-3H-2-oxa-1-thia-9,10a-diazacyclopenta[b]fluorene-1-oxide], 20 nM.
On the same count and under the same terms, to `O=C1OC(=S)N2[C@H](c3ccc4c(c3)OCO4)c3[nH]c4ccccc4c3C[C@H]12` [Example 3, (3aR,10R)-10-Benzo[1,3]dioxol-5-yl-1-thioxo3a,4,9,10-tetrahydro-2-oxa-9,10a-diaza-cyclopenta[β]fluoren-3-one] belongs 53 nM.
For `O=C1OCC2Cc3c([nH]c4ccccc34)C(c3ccc4c(c3)OCO4)N12` (centres unmarked) [Example 13, 10-Benzo[1,3]dioxol-5-yl-3a,4,9,10-tetrahydro-3H-2-oxa-9,10a-diazacyclopenta[b]fluoren-1-one], the concentration for half-maximal inhibition (IC50) in data set [1] came out at 70 nM.
Still for that read-out and setting: the value for `CCCCN1C(=O)[C@@H]2Cc3c([nH]c4ccccc34)[C@H](c3ccc(OC)cc3)N2C1=S` (racemic) [Example 7, (+−, trans)-2-Butyl-10-(4-methoxyphenyl)-1-thioxo-1,2,3a,4,9,10-hexahydro-2,9,10a-triazacyclopenta-[b]fluoren-3-one] was 20 nM; that for `CN1C[C@@H]2Cc3c([nH]c4ccccc34)[C@H](c3ccc4c(c3)OCO4)N2C1=O` (racemic) [Example 11, (+−, cis)-10-Benzo[1,3]dioxol-5-yl-2-methyl-2,3,3a,4,9,10-hexahydro-2,9,10a-triazacyclopenta[b]fluoren-1-one] was 60 nM.

For the origin of these results see US6858620B2, “Condensed pyridoindole derivatives” (Lilly ICOS, LLC, priority 2000, dated 2005).
